Results reported in paper PMC8071358, “Targeting of the Essential acpP, ftsZ, and rne Genes in Carbapenem-Resistant Acinetobacter baumannii by Antisense PNA Precision Antibacterials” (Biomedicines, 2021).
Converted amounts (≈) assume the structure as drawn. {(KFF)3K-eg1} = H-(KFF)3K peptide (K lysine, F phenylalanine) with eg1 linker (8-amino-3,6-dioxaoctanoyl), on the PNA N terminus (5' end); {NH2} = C-terminal amide

Assays:
[1] = system: CRAB strain AC46; test: BPP-PNA MIC, broth microdilution; assay type: cell-based, Acinetobacter baumannii; details: Sigma MHB medium without cation; 37 °C, 18 h
Procedure: (§1) MIC values were determined by broth microdilution according to standard protocols with a few modifications. […] Then, 180 µL bacterial solutions were dispensed into a low-bind 96-well plate (Thermo-Scientific, Roskilde, Denmark) along with 20 µL of BPP-PNA compound (BPP-PNA was serially diluted 2-fold from 16 to 0.5 µM in a 96-well plate). The plate was incubated in a Tecan Genios plate reader (GMI, Minnesota, Ramsey, USA) at 37 °C for 18 h with linear shaking, OD was measured every 20 min at 595 nm. […] The minimum bactericidal concentration (MBC) values were determined by plating 10 µL samples from the wells with no visible turbidity onto Mueller–Hinton agar plates. The MBC is determined the lowest concentration of BPP-PNA that reduces the viability of the initial bacterial inoculum by ≥99.9% (3-log reduction in CFU/mL). A minimum of two independent experiments (biological replicates) of the assay were conducted, and two technical replicates were used in each experiment for each bacterium, compound, and concentration.

[2] = system: A. baumannii SSI1104; test: BPP-PNA MIC, broth microdilution; assay type: cell-based, Acinetobacter baumannii; details: 37 °C, 18 h
Procedure: as §1

[3] = system: E. coli K-12 MG1655; test: BPP-PNA MIC, broth microdilution; assay type: cell-based, Escherichia coli; details: non-target species; MHB without cation (Oxoid)
Procedure: (§2) MIC values were determined by broth microdilution according to standard protocols with a few modifications. An overnight bacterial cell culture was diluted to approximately 5 × 10^5 CFU/mL in non-cation-adjusted Muller Hinton Broth (MHB). Then, 180 µL bacterial solutions were dispensed into a low-bind 96-well plate (Thermo-Scientific, Roskilde, Denmark) along with 20 µL of BPP-PNA compound (BPP-PNA was serially diluted 2-fold from 16 to 0.5 µM in a 96-well plate). The plate was incubated in a Tecan Genios plate reader (GMI, Minnesota, Ramsey, USA) at 37 °C for 18 h with linear shaking, OD was measured every 20 min at 595 nm. […] The minimum bactericidal concentration (MBC) values were determined by plating 10 µL samples from the wells with no visible turbidity onto Mueller–Hinton agar plates. The MBC is determined the lowest concentration of BPP-PNA that reduces the viability of the initial bacterial inoculum by ≥99.9% (3-log reduction in CFU/mL). A minimum of two independent experiments (biological replicates) of the assay were conducted, and two technical replicates were used in each experiment for each bacterium, compound, and concentration.

[4] = system: CRAB strain AC44; test: BPP-PNA MIC, broth microdilution; assay type: cell-based, Acinetobacter baumannii; details: 37 °C, 18 h
Procedure: as §2

[5] = system: CRAB strain AC2; test: BPP-PNA MIC, broth microdilution; assay type: cell-based, Acinetobacter baumannii; details: Sigma MHB medium without cation; 37 °C, 18 h
Procedure: as §2

[6] = system: A. baumannii ATCC 19606; test: BPP-PNA MIC, broth microdilution; assay type: cell-based, Acinetobacter baumannii; details: 37 °C, 18 h
Procedure: as §2

[7] = system: P. aeruginosa (PAO1); test: BPP-PNA MIC, broth microdilution; assay type: cell-based, Pseudomonas aeruginosa; details: non-target species; MHB without cation (Oxoid)
Procedure: as §2

[8] = system: CRAB strains; test: BPP-PNA MIC/MBC summarised over the panel of strains; assay type: cell-based, Acinetobacter baumannii
Procedure: as §2

[9] = system: HepG2 hepatocytes; test: HepG2 cell toxicity (CellTiter-Glo, ATP); assay type: cell-based; details: 10 µM, ATP level
Procedure: The cell toxicity of selected BPP-PNAs was determined using HepG2 hepatocytes grown in DMEM (low glucose) medium supplemented with 100 U/mL penicillin, 100 µg/mL streptomycin, 1% glutamax, and 10% fetal bovine serum (FBS) (Thermofisher Scientific, Roskilde, Denmark), at 37 °C with 5% CO2. Then, 7000–10,000 cells were seeded in each well of a 96-well plate. After 48 h, the BPP-PNAs were added (six replicates for each concentration), followed by overnight incubation. Total amount of adenosine triphosphate (ATP) was used as a measure of cell viability, according to the CellTiter-Glo luminescent cell viability assay (Promega, Madison, WI, USA) kit. BPP-PNAs concentrations ranged from 2.5 to 20 µM. Potassium dichromate (100 µM) was used as a positive control.

[10] = system: CRAB strain AC6; test: Antibiotic MIC (CLSI microdilution or gradient strips); assay type: cell-based, Acinetobacter baumannii; details: Acinetobacter baumannii, AC6; blood isolate; CLSI; read-out: MIC, AC6
Procedure: (§3) All minimum inhibitory concentration (MIC) determinations for antibiotics were performed by the standard microdilution method in 96-well microplate (Thermo-Scientific, Roskilde, Denmark) or by gradient test strips (Liofilchem, Italy) according to the Clinical and Laboratory Standards Institute guidelines.

[11] = system: CRAB strain AC7; test: as above; assay type: cell-based, Acinetobacter baumannii; details: Acinetobacter baumannii, AC7; blood isolate; CLSI; read-out: MIC, AC7
Procedure: as §3

[12] = system: CRAB strain AC9; test: as above; assay type: cell-based, Acinetobacter baumannii; details: Acinetobacter baumannii, AC9; CSF isolate; CLSI; read-out: MIC, AC9
Procedure: as §3, with “guidelines. Escherichia coli ATCC 25922 was used as control.” for “guidelines.”

[13] = system: CRAB strain AC8; test: as above; assay type: cell-based, Acinetobacter baumannii; details: Acinetobacter baumannii, AC8; sputum isolate; CLSI; read-out: MIC, AC8
Procedure: as §3, with “guidelines. Escherichia coli ATCC 25922 was used as control.” for “guidelines.”

[14] = system: CRAB strain AC1; test: as above; assay type: cell-based, Acinetobacter baumannii; details: Acinetobacter baumannii, AC1, wound isolate
Procedure: as §3, with “guidelines. Escherichia coli ATCC 25922 was used as control.” for “guidelines.”

[15] = system: CRAB strain AC5; test: as above; assay type: cell-based, Acinetobacter baumannii; details: Acinetobacter baumannii, AC5, urine isolate
Procedure: as §3, with “guidelines. Escherichia coli ATCC 25922 was used as control.” for “guidelines.”

[16] = system: CRAB strain AC4; test: as above; assay type: cell-based, Acinetobacter baumannii; details: Acinetobacter baumannii, AC4; trachea isolate; CLSI; read-out: MIC, AC4
Procedure: as §3, with “guidelines. Escherichia coli ATCC 25922 was used as control.” for “guidelines.”

[17] = system: CRAB strain AC46; test: as above; assay type: cell-based, Acinetobacter baumannii; details: Acinetobacter baumannii, AC46; sputum isolate; CLSI; read-out: MIC, AC46
Procedure: as §3, with “guidelines. Escherichia coli ATCC 25922 was used as control.” for “guidelines.”

[18] = system: A. baumannii ATCC 19606 type strain; test: as above; assay type: cell-based, Acinetobacter baumannii; details: Acinetobacter baumannii, ATCC19606
Procedure: as §3, with “guidelines. Escherichia coli ATCC 25922 was used as control.” for “guidelines.”

[19] = system: CRAB strain AC44; test: as above; assay type: cell-based, Acinetobacter baumannii; details: Acinetobacter baumannii, AC44, urine isolate
Procedure: as §3, with “guidelines. Escherichia coli ATCC 25922 was used as control.” for “guidelines.”

[20] = system: CRAB strain SSI1104; test: as above; assay type: cell-based, Acinetobacter baumannii; details: Acinetobacter baumannii, SSI1104
Procedure: as §3, with “guidelines. Escherichia coli ATCC 25922 was used as control.” for “guidelines.”

[21] = system: CRAB strain AC3; test: as above; assay type: cell-based, Acinetobacter baumannii; details: Acinetobacter baumannii, AC3, sputum isolate
Procedure: as §3, with “guidelines. Escherichia coli ATCC 25922 was used as control.” for “guidelines.”

[22] = system: CRAB strain AC2; test: as above; assay type: cell-based, Acinetobacter baumannii; details: Acinetobacter baumannii, AC2; wound isolate; CLSI; read-out: MIC, AC2
Procedure: as §3, with “guidelines. Escherichia coli ATCC 25922 was used as control.” for “guidelines.”

[23] = Sigma MHB medium without cation

## H-(KFF)3K-eg1-ATATCGCTCAC-NH2 (all peptide nucleic acid (PNA), 5' {(KFF)3K-eg1}, 3' {NH2}) [PNA 5652, anti-acpP peptide-PNA conjugate, match, +40 to +50]
[1]
  MIC, AC46: 4 µM
[2]; MHB without cation (Oxoid)
  MIC, SSI 1104: 4 µM
[2]; [23]
  MIC, SSI 1104: 4 µM
[3]
  MIC, E. coli K-12 MG1655: 16 µM
[4]; [23]
  MIC, AC44: 4 µM
[5]
  MIC, AC2: 4 µM
[6]; MHB without cation (Oxoid)
  MIC, ATCC 19606: 4 µM
[6]; Sigma MHB medium without cation, ~5 × 10^5 CFU/mL, OD595 < 0.1
  MIC, ATCC 19606: 4 µM
[7]
  MIC, P. aeruginosa (PAO1): 16 µM
[8]; several A. baumannii strains
  MIC (complete growth inhibition) over the CRAB strains tested: 4 µM

## H-(R-Ahx-R)4-Ahx-GAGGCCATGAC-NH2 (N-terminal (R-Ahx-R)4-Ahx peptide, C-terminal amide, backbone not given here, further chemistry not given here) [PNA 5613, anti-ftsZ (R-Ahx-R)4-Ahx-PNA, match]
[4]; MHB without cation (Oxoid)
  MIC, AC44: >16 µM
[6]; MHB without cation (Oxoid)
  MIC, ATCC 19606: >16 µM
[9]
  toxicity in HepG2: very significant toxicity
[8]; text on Table 2, (R-Ahx-R)4 BPP
  MIC: > 16 µM

## CN(C)c1cc(NC(=O)CNC(C)(C)C)c(O)c2c1C[C@H]1C[C@H]3[C@H](N(C)C)C(O)=C(C(N)=O)C(=O)[C@@]3(O)C(O)=C1C2=O [Tigecycline]
[10]
  MIC: 1 µg/mL (≈ 1.71 µM)
[11]
  MIC: 1 µg/mL (≈ 1.71 µM)
[12]
  MIC: 1 µg/mL (≈ 1.71 µM)
[13]
  MIC: 1 µg/mL (≈ 1.71 µM)
[14]
  MIC: 0.5 µg/mL (≈ 0.854 µM)
[15]
  MIC: 1 µg/mL (≈ 1.71 µM)
[16]
  MIC: 1 µg/mL (≈ 1.71 µM)
[17]
  MIC: 0.5 µg/mL (≈ 0.854 µM)
[18]
  MIC: 0.5 µg/mL (≈ 0.854 µM)
[19]
  MIC: 1 µg/mL (≈ 1.71 µM)
[20]
  MIC: 1 µg/mL (≈ 1.71 µM)
[21]
  MIC: 0.5 µg/mL (≈ 0.854 µM)
[22]
  MIC: 1 µg/mL (≈ 1.71 µM)
